Source: patent publication US7919093B2, “Roles for dual endothelin-1/angiotensin II receptor (Dear) in hypertension and angiogenesis” (Trustees of Boston University, priority 2004, dated 2011)
Changes are numbered by the printed parent chain.

Legend:
[1] = target: T1, Dahl R Dear S44P/M74T variant (Rattus norvegicus, UniProt D3ZGZ6, F4L/M74T/S44P); assay: Radioligand binding to Dahl R Dear expressed in Cos1 cell membranes; conditions: for hormone binding (direct radioligand binding), in words: Dahl R Dear transiently expressed in Cos1 cells
T1 construct: expressed in transfected cells; host or cells: Cos1 cells (membranes), pcDNA expression vector
T1 sequence (D3ZGZ6 1-127 F4L/S44P/M74T): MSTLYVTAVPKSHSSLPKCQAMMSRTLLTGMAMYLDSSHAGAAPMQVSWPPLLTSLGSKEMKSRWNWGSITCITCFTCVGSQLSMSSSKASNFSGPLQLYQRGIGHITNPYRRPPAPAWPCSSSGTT
Procedure: (§1) The Dahl S and Dahl R Dear cDNAs were subcloned directionally (5′ to 3′) into the pcDNA (+) expression vector (Invitrogen, Carlsbad, Calif.) and transiently expressed in Cos1 cells (ATCC). Cos1 cells were transfected with the expression vectors via lipofectin-mediated gene transfer and cell membranes were isolated 72 hr post-transfection for hormone binding. Rat kidney membranes were prepared essentially as described (42). COS-1 cell membranes were isolated as described (36). Briefly, cells were washed twice in phosphate-buffered saline and homogenized in 10-fold ice-cold buffer (0.25 M sucrose, 1 mM EDTA, 50 μg/ml aprotinin, 10 μg/ml leupeptin, 100 μM phenylmethylsulfonyl fluoride, 25 mM Imidazol/HCl, pH 7.4). The homogenate was centrifuged at 5,000 g for 15 min and the pellet was discarded. The supernatant was then centrifuged at 27,500 g for 30 min and the resulting pellet was washed twice in ice-cold suspension buffer (5 mM MgCl2, 0.2 mM EDTA, 50 mM Hepes, pH 7.4). The final pellet was resuspended into the appropriate assay buffer and quickly frozen in liquid nitrogen. The membrane preparations were store at −80° C. until use. Protein concentrations of the membranes were determined by BCA protein assay kit (PIERCE).
(§2) Binding of [^125I]Tyr^4-angiotensin II and [^125I]Tyr^13-endothelin-1 to COS-1 membranes was performed by a rapid filtration method (32, 50). Briefly, [^125I]Tyr^4-angiotensin II ([…]) or [^125I]Tyr^13-endothelin-1 (0.045˜1.46 nM) was incubated with membranes (100 μg) for 20 min at 37° C. in 100 μl buffer A (5 mM MgCl2, 0.2 mM EDTA, 10 mg/ml BSA, 10 mM Hepes, pH7.4). Binding reactions were terminated by the addition of 1 ml ice-cold buffer A and immediately filtered through a Whatman GF/C filter (presoaked overnight at 4° C. in 10 mg/ml BSA) and subsequently washed with 15 ml ice-cold buffer A. Specific binding was determined as the difference between the total radioactivity bound to membranes and the radioactivity bound to blanks containing 1 μM AngII or 1 μM ET-1. The dissociation constant (Kd) and maximum ligand-binding sites (Bmax) were determined using Hill plot analysis (55). Hill coefficient values (h) were calculated from the relationship ln [B/(Bmax−B)]=h ln [free Radioligand]−ln Kd. An F test (P<0.05) was used to determine whether the saturation binding curves best fitted one or two independent binding sites. The data were best fit by two affinity states determined by Scatchard plot analysis; KH and KL designate the Kd for high- and low-affinity states of the receptor, respectively (44). Most results are expressed as the mean±SE (standard error) from three to five independent experiments.

[2] = target: T2, Dahl S Dear S44/M74 variant (Rattus norvegicus, UniProt D3ZGZ6, F4L); assay: Radioligand binding to Dahl S Dear expressed in Cos1 cell membranes; conditions: for hormone binding, in words: Dahl S Dear transiently expressed in Cos1 cells; for Bmax / h (Hill coefficient): S44/M74 variant, mean ± s.e.m.
T2 construct: expressed in transfected cells; host or cells: Cos1 cells (membranes), pcDNA expression vector
T2 sequence (D3ZGZ6 1-127 F4L): T1 sequence (D3ZGZ6 1-127 F4L/S44P/M74T) with P44S, T74M
Procedure: as §1, §2

[3] = target: T1, Dahl R Dear S44P/M74T variant; assay: West-western blot of kidney and Cos1 cell membranes (labeled ligand on protein blot); assay type: binding; conditions: Dahl R kidney membranes (Kid-R) and Cos1-R membranes
Procedure: (§3) A polyclonal rabbit antipeptide antibody raised against the synthetic peptide P51LLTSLGSKE60 (SEQ. ID. NO. 7) was utilized for western blot analysis (1). Plasma membranes (40 μg protein/lane) were subjected to 12.5% SDS-PAGE and the separated proteins electro-transferred onto PVDF membranes which were incubated with blocking buffer (0.3% Tween-20, 5% non-fat milk, 137 mM NaCl, 2.7 mM KCl, 8.1 mM Na2HPO4, and 1.5 mM KH2PO4, pH7.4) for 2 hr at room temperature, and then incubated with primary antibody (1:500) for 16 hr at 4° C. The PVDF membranes were then sequentially incubated with biotinylated goat anti-rabbit IgG followed by immunostaining with horseradish peroxidase-linked streptavidin. To confirm the interaction between Dear and ligands, we performed west-western blot analysis (62). Briefly, protein blots of kidney and COS-1 cell membranes were incubated with radioligands (0.5 μCi in 10 ml) in buffer A at 37° C. for 16 hr. PVDF membranes were then washed three times for 15 min with buffer A at 37° C. and exposed to X-ray film at −80° C. for 1-3 days.

[4] = target: T2, Dahl S Dear S44/M74 variant; assay: as above; assay type: binding; conditions: Dahl S kidney membranes (Kid-S) and Cos1-S membranes
Procedure: as §3

mouse Dear = target: T3, mouse Dear (Mus musculus, UniProt Q2QKR2); assay: Ligand binding to mouse Dear expressed in Cos-1 cells; conditions: mouse receptor polypeptide, data not shown
T3 construct: The mouse receptor polypeptide contains 127 amino acids showing 78 percent homology with the rat receptor; expressed in transfected cells; host or cells: Cos-1 cells (membranes)
T3 sequence (Q2QKR2 1-127): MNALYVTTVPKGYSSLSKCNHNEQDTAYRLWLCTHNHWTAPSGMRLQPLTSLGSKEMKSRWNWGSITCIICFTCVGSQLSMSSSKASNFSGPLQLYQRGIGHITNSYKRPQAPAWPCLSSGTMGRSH
Procedure: Mouse Dear cDNA was obtained by RT-PCR from C57BL/6 mouse kidney PolyA^+ RNA (forward primer, 5′-[…]-3′ (SEQ. ID. NO. 13); reverse primer, 5′-[…]-3′(SEQ. ID. NO. 14)), subcloned into the PT-vector system (Clontech, Palo Alto, Calif.) and then sequenced (GenBank accession no. DQ009865). RNA blot analysis was done as described (1) using PolyA^+ RNA (3 μg), γ-^32P end labeled anti-sense mouse Dear oligonucleotide (5′-[…]-3′(SEQ. ID. NO. 15)) as probe. Receptor expression studies, ^125I-ET-1-1 and ^125I-AngII binding to membranes were done as described (2).

[5] = [125I]Tyr13-Endothelin I, S44P/M74T variant, mean ± s.e.m.

## CC[C@H](C)[C@H](NC(=O)[C@H](Cc1ccc(O)c(I)c1)NC(=O)[C@@H](NC(=O)[C@H](CCCNC(=N)N)NC(=O)[C@@H](N)CC(=O)O)C(C)C)C(=O)N[C@@H](Cc1c[nH]cn1)C(=O)N1CCC[C@H]1C(=O)N[C@@H](Cc1ccccc1)C(=O)O [[^125I]Tyr^4-Angiotensin II]
[1]
  hormone binding (direct radioligand binding), in words: do not exhibit AngII binding
[1]; [125I]Tyr4-Angiotensin II, S44P/M74T variant, Cos1 membranes
  Bmax: no binding
[2]
  hormone binding, in words: binding both ET-1 and AngII
[2]; [125I]Tyr4-Angiotensin II, Cos1 membranes
  Bmax: 23.6 ± 0.92 pmol/mg membrane protein
[2]; [125I]Tyr4-Angiotensin II
  h (Hill coefficient): 2.63 ± 0.25
[3]
  binding in west-western blot analysis: binding only to Dahl S kidney membranes
[4]
  binding in west-western blot analysis: detects binding

## CC[C@H](C)[C@H](NC(=O)[C@H](CC(=O)O)NC(=O)[C@H](CC(C)C)NC(=O)[C@H](Cc1c[nH]cn1)NC(=O)[C@@H]1CSSC[C@H](N)C(=O)N[C@@H](CO)C(=O)N[C@H]2CSSC[C@H](NC(=O)[C@H](CCC(=O)O)NC(=O)[C@H](CCCCN)NC(=O)[C@H](CC(=O)O)NC(=O)[C@H](CCSC)NC(=O)[C@H](CC(C)C)NC(=O)[C@H](CO)NC(=O)[C@H](CO)NC2=O)C(=O)N[C@@H](C(C)C)C(=O)N[C@@H](Cc2ccc(O)c(I)c2)C(=O)N[C@@H](Cc2ccccc2)C(=O)N1)C(=O)N[C@H](C(=O)N[C@@H](Cc1c[nH]c2ccccc12)C(=O)O)[C@@H](C)CC [[^125I]Tyr^13-Endothelin I]
[1]
  hormone binding (direct radioligand binding), in words: exhibit normal ET-1 binding
[1]; [5]
  Bmax: 20.21 ± 1.59 pmol/mg membrane protein
  h (Hill coefficient): 1.45 ± 0.09
[2]
  hormone binding, in words: binding both ET-1 and AngII
[2]; KH, S44/M74 vs Dahl R variant
  increased affinity for ET-1, Dahl S variant compared to Dahl R variant: 3 fold
[2]; [125I]Tyr13-Endothelin I
  Bmax: 26.25 ± 1.29 pmol/mg membrane protein
  h (Hill coefficient): 1.41 ± 0.12
[3]
  binding in west-western blot analysis: reveals binding
[4]
  binding in west-western blot analysis: reveals binding
Mouse Dear
  ligand binding, in words: binds solely ET-1
